The values that follow come from US6875576B2, “Method for evaluating therapeutic efficacy” (Kosan Biosciences, Inc., priority 2001, dated 2005).

The conditions of series [1]: treating gastroesophageal reflux disease; Van Her Waarde et al. 2000; cited from earlier work.
For series [2], the target named is T1, human motilin receptor (Homo sapiens, UniProt O43193).
T1 construct: expressed in transfected cells; host or cells: HEK293 (ATCC CRL-1573), transiently or stably transfected with pkos127-159 and pmtAEQ
T1 sequence (O43193 whole entry): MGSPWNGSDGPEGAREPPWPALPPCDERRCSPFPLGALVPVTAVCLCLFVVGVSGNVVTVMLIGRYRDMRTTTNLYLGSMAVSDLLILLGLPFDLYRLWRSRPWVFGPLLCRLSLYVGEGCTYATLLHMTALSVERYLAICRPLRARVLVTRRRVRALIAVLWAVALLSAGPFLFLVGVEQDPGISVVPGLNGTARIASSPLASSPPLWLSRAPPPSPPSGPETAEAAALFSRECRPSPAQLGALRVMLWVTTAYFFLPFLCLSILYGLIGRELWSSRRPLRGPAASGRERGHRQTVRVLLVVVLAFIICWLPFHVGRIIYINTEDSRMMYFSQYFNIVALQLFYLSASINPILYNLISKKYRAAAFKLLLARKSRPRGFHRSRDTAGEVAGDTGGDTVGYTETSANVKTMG
The series is described as follows: Motilin receptor activation assay (aequorin luminescence). The settings on record: motilin receptor agonism. Type of series: cell-based. An excerpt:
A gene encoding the target receptor is cloned and placed into a mammalian expression vector such as pcDNA3.1. The gene may be synthetic or naturally derived. Next, pmtAEQ, an aequorin expression plasmid available from Molecular Probes, and the receptor expression construct are transfected into HEK293 cells using a commercially available transfection kit such as Lipofectamine Plus (Gibco BRL). At this point, a stable cell line may be selected from the transfection mix using common techniques, or the heterologous mixture obtained from transient transfection may be used directly. […] A 100 uL aliquot of cells is added to each well, and following each addition, the integrated luminescence is measured for 30-60 seconds and is taken as the agonist response. Next, 100 uL of 1% triton X-100 in PBS is injected into each well, and the integrated luminescence is measured a second time over 30-60 seconds and is taken as the triton response. A value F is calculated as equaled to the agonist response divided by the sum of the agonist response and the triton response. […]
(§1) Flasks containing HEK293 cells either transiently or stably expressing the motilin receptor and aequorin were used in receptor activation assays. Cells were grown to 80-100% confluence in T175 flasks containing MEMalpha medium with 10% v/v fetal bovine serum, harvested by trypsinization, and counted using a hemocytometer. […]

Series [3] concerns the target T1, human motilin receptor. The series is described as follows: Efficacy index: ratio of desensitization value to potency value, motilin receptor and aequorin co-expressed. Type of series: cell-based. To be noted: ratio of desensitization value (IC50) to potency value (EC50); cells co-expressing motilin receptor and aequorin.
Description: In one aspect of the present invention, the comparison of the potency value and the desensitization value is accomplished by calculating a ratio of the desensitization value to the potency value. This ratio is termed the “efficacy index”. […] In other words, because the concentration required for the desired biological response is also the concentration that induces desensitization, the compound is not likely to be therapeutically effective if the desired response is receptor activation. Under these circumstances, the concentration required for the desired biological response should be well below the concentration that induces desensitization. […]
as §1
Stock solutions (20 mM) of test compounds were made in ethanol and diluted 100-fold into PBS. […] One of the injectors was used to add 100 uL of the cell suspension (˜5×10^4 to 10^5) to each well, and the bioluminescence response was measured over the course of 30-60 seconds. […] The F value of the cells to each test compound was calculated using equation 1, and data were fit to equation 2 to obtain EC50 values for the test compounds. […]

Another series in a line: Acid stability. It is filed as physicochemical. The settings on record: stomach environment.
The target of the next series is T2, C3a receptor (Homo sapiens, UniProt Q16581).
T2 construct: expressed in transfected cells; host or cells: HEK 293, transient transfection, with or without promiscuous G protein Galpha16
T2 sequence (Q16581 1-482): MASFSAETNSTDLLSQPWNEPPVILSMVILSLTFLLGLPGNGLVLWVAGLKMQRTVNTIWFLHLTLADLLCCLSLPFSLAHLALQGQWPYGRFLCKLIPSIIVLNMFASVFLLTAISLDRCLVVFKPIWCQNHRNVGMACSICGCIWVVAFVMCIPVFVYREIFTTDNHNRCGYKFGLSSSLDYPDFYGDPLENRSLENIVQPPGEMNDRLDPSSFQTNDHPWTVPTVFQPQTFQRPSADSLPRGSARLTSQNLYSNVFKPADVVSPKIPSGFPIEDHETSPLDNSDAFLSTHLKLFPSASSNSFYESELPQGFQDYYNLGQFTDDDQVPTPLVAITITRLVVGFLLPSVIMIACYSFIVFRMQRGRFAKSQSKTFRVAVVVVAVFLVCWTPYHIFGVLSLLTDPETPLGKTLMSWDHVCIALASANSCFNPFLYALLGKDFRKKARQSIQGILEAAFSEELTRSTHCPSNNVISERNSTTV
The series is described as follows: Ca2+ mobilization via FLIPR. It is filed as cell-based. As to the method: 1. 24 h after receptor transfection harvest and plate cells into poly-D-lysine-coated 96-well black-walled/clear bottom microtiter plates (Becton Dickinson Labware) at 3×10^4 cells per well.
2. After 18 to 24 h aspirate off medium and add 100 μl of fresh EMEM containing 4 μM Fluo-3/AM (Molecular Probes; prepare stock solution at 2 mM in DMSO containing 20% pluronic acid), 0.1% BSA, and […] to each well and incubate for 1 h at 37° C.
3. Aspirate medium and replace with 100 μl of the same medium, but without Fluo-3/AM, and incubate for 10 min at 37° C. Wash cells three times with a Denley cell washer (Labsystems) with Krebs Ringer Henscleit (KRH; 118 mM NaCl, 4.6 mM KCl, […] NaHCO3, 1 mM KH2PO4, 1.1 mM glucose, 1.1 mM MgCl2) containing 0.1% BSA, […], and 20 mM HEPES pH 7.4 (buffer A). After the last wash aspirate down to a final volume of 100 μl.
4. Prepare plates of potential ligands, tissue extracts, or compound libraries in 96-well polypropylene microplates at three times the final concentration in buffer A and warm to 37° C.
5. Place microplates containing Fluo-3 loaded cells and the ligand plates in FLIPR and monitor. At initiation of the fluorescence recording read measurements every 1 s for 60 s and then every 3 s for the following 60 s. […] FLIPR software normalizes fluorescent readings to give equivalent readings for all wells at zero time.

For the compound `CC[C@H]1OC(=O)[C@H](C)[C@@H](OC2C[C@@](C)(OC)C[C@H](C)O2)[C@H](C)[C@@H](OC2O[C@H](C)C[C@H](N(C)CC)[C@H]2O)[C@]2(C)CC(C)=C(O2)[C@H](C)[C@@H](O)[C@H]1C` (stereo partly drawn) [ABT-229], the clinical efficacy result in series [1] is “lack of efficacy”.

For the compound `CC[C@H]1OC(=O)[C@H](C)[C@@H](OC2C[C@@](C)(OC)[C@@H](O)[C@H](C)O2)[C@H](C)[C@@H](OC2O[C@H](C)C[C@H](N(C)C)[C@H]2O)[C@]2(C)CC(C)=C(O2)[C@H](C)[C@@H](O)[C@]1(C)O` (stereo partly drawn) [erythromycin 6,9-enol ether], the “potency (EC50)” value on human motilin receptor [2] was “nanomolar range”. Besides, the efficacy index entry on human motilin receptor [3] was “greater than 20,000”. The stability in acid result in “Acid stability” is reported as “unstable in acid”.

On to C3a: ligand of the C3a receptor, for which the “Ca2+ mobilization response” value in the series with C3a receptor (C3a receptor co-expressed with Gα16 in HEK 293 cells) is recorded as “robust responses”; with C3a receptor (C3a receptor expressed alone in HEK 293 cells) it was “weak or no Ca^2+ mobilization responses”.
